Data reported in PubChem BioAssay (NCI).
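1) Cells in 96-well plates. 2) Compound, 48 h, 5 concentrations. 3) Linear interpolation between surrounding doses. 4) Unreached endpoint = highest concentration. At the TGI there is no net growth.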

Legend:
Test in all cases: DTP human tumour cell line panel, 48 h
786-0 renal = system: 786-0 renal
A498 renal = system: A498 renal
A549 NSCLC = system: A549 NSCLC
ACHN renal = system: ACHN renal
BT-549 breast = system: BT-549 breast
CAKI-1 renal = system: CAKI-1 renal
CCRF-CEM leukemia = system: CCRF-CEM leukemia
COLO 205 colon = system: COLO 205 colon
DU-145 prostate = system: DU-145 prostate
EKVX NSCLC = system: EKVX NSCLC
HCC-2998 colon = system: HCC-2998 colon
HCT-116 colon = system: HCT-116 colon
HCT-15 colon = system: HCT-15 colon
HL-60(TB) leukemia = system: HL-60(TB) leukemia
HOP-62 NSCLC = system: HOP-62 NSCLC
HOP-92 NSCLC = system: HOP-92 NSCLC
HS 578T breast = system: HS 578T breast
HT29 colon = system: HT29 colon
IGROV1 ovarian = system: IGROV1 ovarian
K-562 leukemia = system: K-562 leukemia
KM12 colon = system: KM12 colon
LOX IMVI melanoma = system: LOX IMVI melanoma
M14 melanoma = system: M14 melanoma
MALME-3M melanoma = system: MALME-3M melanoma
MCF7 breast = system: MCF7 breast
MDA-MB-231 breast = system: MDA-MB-231 breast
MDA-MB-435 = system: MDA-MB-435
MOLT-4 leukemia = system: MOLT-4 leukemia
NCI-H226 lung = system: NCI-H226 lung
NCI-H23 lung = system: NCI-H23 lung
NCI-H460 lung = system: NCI-H460 lung
NCI-H522 lung = system: NCI-H522 lung
NCI/ADR-RES ovarian = system: NCI/ADR-RES ovarian
OVCAR-3 ovarian = system: OVCAR-3 ovarian
OVCAR-4 ovarian = system: OVCAR-4 ovarian
OVCAR-5 ovarian = system: OVCAR-5 ovarian
OVCAR-8 ovarian = system: OVCAR-8 ovarian
PC-3 prostate = system: PC-3 prostate
RPMI-8226 leukemia = system: RPMI-8226 leukemia
RXF 393 renal = system: RXF 393 renal
SF-268 CNS = system: SF-268 CNS
SF-295 CNS = system: SF-295 CNS
SF-539 CNS = system: SF-539 CNS
SK-MEL-2 melanoma = system: SK-MEL-2 melanoma
SK-MEL-28 melanoma = system: SK-MEL-28 melanoma
SK-MEL-5 melanoma = system: SK-MEL-5 melanoma
SN12C renal = system: SN12C renal
SNB-19 CNS = system: SNB-19 CNS
SNB-75 CNS = system: SNB-75 CNS
SR leukemia = system: SR leukemia
SW-620 colon = system: SW-620 colon
T-47D breast = system: T-47D breast
TK-10 renal = system: TK-10 renal
U251 CNS = system: U251 CNS
UACC-257 melanoma = system: UACC-257 melanoma
UACC-62 melanoma = system: UACC-62 melanoma
UO-31 renal = system: UO-31 renal

COc1ccc(Nc2nc3cc(C(F)(F)F)ccc3nc2C(=O)O)cc1OC
TGI (786-0 renal): > 100 µM | TGI (A498 renal): > 100 µM | TGI (A549 NSCLC): > 100 µM | TGI (ACHN renal): > 100 µM | TGI (BT-549 breast): > 100 µM | TGI (CAKI-1 renal): 56.3 µM | TGI (CCRF-CEM leukemia): 67.5 µM | TGI (COLO 205 colon): 69.3 µM | TGI (DU-145 prostate): > 100 µM | TGI (EKVX NSCLC): > 100 µM | TGI (HCC-2998 colon): > 100 µM | TGI (HCT-116 colon): 95.7 µM | TGI (HCT-15 colon): > 100 µM | TGI (HL-60(TB) leukemia): 72.2 µM | TGI (HOP-62 NSCLC): > 100 µM | TGI (HOP-92 NSCLC): 74.9 µM | TGI (HS 578T breast): > 100 µM | TGI (HT29 colon): > 100 µM | TGI (IGROV1 ovarian): > 100 µM | TGI (K-562 leukemia): > 100 µM | TGI (KM12 colon): 88.4 µM | TGI (LOX IMVI melanoma): > 100 µM | TGI (M14 melanoma): > 100 µM | TGI (MALME-3M melanoma): > 100 µM | TGI (MCF7 breast): 95.3 µM | TGI (MDA-MB-231 breast): 65.6 µM | TGI (MDA-MB-435): > 100 µM | TGI (MOLT-4 leukemia): 69.5 µM | TGI (NCI-H226 lung): 55.6 µM | TGI (NCI-H23 lung): 78.9 µM | TGI (NCI-H460 lung): > 100 µM | TGI (NCI-H522 lung): > 100 µM | TGI (NCI/ADR-RES ovarian): > 100 µM | TGI (OVCAR-3 ovarian): 93.3 µM | TGI (OVCAR-4 ovarian): > 100 µM | TGI (OVCAR-5 ovarian): > 100 µM | TGI (OVCAR-8 ovarian): > 100 µM | TGI (PC-3 prostate): > 100 µM | TGI (RPMI-8226 leukemia): 92 µM | TGI (RXF 393 renal): 60.2 µM | TGI (SF-268 CNS): > 100 µM | TGI (SF-295 CNS): 45.5 µM | TGI (SF-539 CNS): 62.3 µM | TGI (SK-MEL-2 melanoma): 33.2 µM | TGI (SK-MEL-28 melanoma): > 100 µM | TGI (SK-MEL-5 melanoma): 47.9 µM | TGI (SN12C renal): 64.2 µM | TGI (SNB-19 CNS): > 100 µM | TGI (SNB-75 CNS): > 100 µM | TGI (SR leukemia): 77 µM | TGI (SW-620 colon): > 100 µM | TGI (T-47D breast): > 100 µM | TGI (TK-10 renal): > 100 µM | TGI (U251 CNS): > 100 µM | TGI (UACC-257 melanoma): > 100 µM | TGI (UACC-62 melanoma): 53.6 µM | TGI (UO-31 renal): > 100 µM
